Here are results for 1 compound from article PMC5461819 (Peptides, 2015).

Test [1] concerns the target T1, human BRS-3 (Homo sapiens, UniProt P32247).
T1 sequence (P32247 1-399): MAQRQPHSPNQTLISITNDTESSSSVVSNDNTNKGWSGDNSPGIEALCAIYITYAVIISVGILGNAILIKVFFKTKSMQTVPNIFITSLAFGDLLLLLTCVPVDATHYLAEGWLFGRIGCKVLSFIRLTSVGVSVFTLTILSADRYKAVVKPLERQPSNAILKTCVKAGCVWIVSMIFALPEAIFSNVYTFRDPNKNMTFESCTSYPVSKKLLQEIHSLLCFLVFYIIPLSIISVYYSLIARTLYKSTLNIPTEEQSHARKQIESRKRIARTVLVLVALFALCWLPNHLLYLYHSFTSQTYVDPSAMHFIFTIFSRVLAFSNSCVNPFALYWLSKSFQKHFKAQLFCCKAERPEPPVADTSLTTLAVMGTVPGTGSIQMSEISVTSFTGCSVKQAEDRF
Nature of the test: [3H]Inositol phosphate generation. In kind it is cell-based.

Test [2] concerns the target T1, human BRS-3. Nature of the test: Binding studies, inhibition of 125I-[D-Tyr6,β-Ala11,Phe13,Nle14]Bn-.
The target in test [3] is T2, mouse GRPR (Mus musculus, UniProt P21729). Nature of the test: Binding studies, mGRPR/BALB cells.
T2 sequence (P21729 whole entry): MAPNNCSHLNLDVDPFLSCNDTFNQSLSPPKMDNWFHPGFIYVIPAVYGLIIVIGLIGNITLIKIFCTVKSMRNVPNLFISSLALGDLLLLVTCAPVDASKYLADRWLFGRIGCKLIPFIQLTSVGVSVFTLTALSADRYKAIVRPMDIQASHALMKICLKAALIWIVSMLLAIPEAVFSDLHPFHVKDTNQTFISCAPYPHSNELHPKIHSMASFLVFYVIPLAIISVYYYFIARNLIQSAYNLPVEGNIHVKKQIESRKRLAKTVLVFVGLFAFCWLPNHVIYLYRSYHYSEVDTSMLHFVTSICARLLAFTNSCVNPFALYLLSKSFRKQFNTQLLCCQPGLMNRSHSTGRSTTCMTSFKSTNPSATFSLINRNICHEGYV
Test [4] concerns the target T3, rat GRPR (Rattus norvegicus, UniProt P52500). Nature of the test: [3H]Inositol phosphate generation, rGRPR/AR42J cells. Particulars: EC50 Rat GRPR rGRPR/AR42J, [3H]IP production, 60 min, 37°C. In kind it is cell-based.
The target of test [5] is T4, rat NMBR (Rattus norvegicus, UniProt P24053).
T4 sequence (P24053 1-390): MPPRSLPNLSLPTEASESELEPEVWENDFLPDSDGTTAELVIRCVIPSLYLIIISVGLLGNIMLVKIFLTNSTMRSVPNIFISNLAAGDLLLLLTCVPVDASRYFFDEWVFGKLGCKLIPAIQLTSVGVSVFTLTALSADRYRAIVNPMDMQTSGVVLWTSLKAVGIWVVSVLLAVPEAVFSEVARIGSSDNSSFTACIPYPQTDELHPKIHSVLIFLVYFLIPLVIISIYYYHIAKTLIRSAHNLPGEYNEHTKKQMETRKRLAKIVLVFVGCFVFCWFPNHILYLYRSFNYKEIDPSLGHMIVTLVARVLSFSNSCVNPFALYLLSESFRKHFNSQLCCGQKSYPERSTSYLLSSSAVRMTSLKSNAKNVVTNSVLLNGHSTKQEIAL
Nature of the test: Binding studies, rNMBR/BALB cells.

Test [6] concerns the target T5, human GRPR (Homo sapiens, UniProt P30550). Put plainly: [3H]Inositol phosphate generation, hGRPR/BALB cells. It is filed as cell-based.
Test [7] addresses T4, rat NMBR. Put plainly: [3H]Inositol phosphate generation, rNMBR/BALB cells. To be noted: EC50 Rat NMBR rNMBR/BALB, [3H]IP production, 60 min, 37°C. It is filed as cell-based.
Another test has as its target T6, mouse BRS-3 (Mus musculus, UniProt O54798).
T6 sequence (O54798 1-399): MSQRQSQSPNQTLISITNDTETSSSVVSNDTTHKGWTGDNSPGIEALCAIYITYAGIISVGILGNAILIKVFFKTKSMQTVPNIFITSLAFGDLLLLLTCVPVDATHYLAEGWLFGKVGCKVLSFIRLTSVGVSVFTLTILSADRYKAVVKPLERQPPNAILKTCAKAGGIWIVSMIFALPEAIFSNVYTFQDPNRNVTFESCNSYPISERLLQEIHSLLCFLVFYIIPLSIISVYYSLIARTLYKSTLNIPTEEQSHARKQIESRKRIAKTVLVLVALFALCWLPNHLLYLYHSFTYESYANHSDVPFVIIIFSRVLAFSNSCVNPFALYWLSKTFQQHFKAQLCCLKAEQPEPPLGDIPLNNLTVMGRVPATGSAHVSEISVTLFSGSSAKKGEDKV
Put plainly: [3H]Inositol phosphate generation, mBRS-3/BALB cells. In kind it is cell-based.

In test [8] the target is T5, human GRPR. Put plainly: Binding studies, hGRPR/BALB cells.
Test [9] addresses T3, rat GRPR. Nature of the test: Binding studies, rGRPR/AR42J cells.
Test [10] concerns the target T2, mouse GRPR. Put plainly: [3H]Inositol phosphate generation, mGRPR/BALB cells. In kind it is cell-based.
The target of test [11] is T7, human NMBR (Homo sapiens, UniProt P28336). Nature of the test: Binding studies, hNMBR/BALB cells.
T7 sequence (P28336 whole entry): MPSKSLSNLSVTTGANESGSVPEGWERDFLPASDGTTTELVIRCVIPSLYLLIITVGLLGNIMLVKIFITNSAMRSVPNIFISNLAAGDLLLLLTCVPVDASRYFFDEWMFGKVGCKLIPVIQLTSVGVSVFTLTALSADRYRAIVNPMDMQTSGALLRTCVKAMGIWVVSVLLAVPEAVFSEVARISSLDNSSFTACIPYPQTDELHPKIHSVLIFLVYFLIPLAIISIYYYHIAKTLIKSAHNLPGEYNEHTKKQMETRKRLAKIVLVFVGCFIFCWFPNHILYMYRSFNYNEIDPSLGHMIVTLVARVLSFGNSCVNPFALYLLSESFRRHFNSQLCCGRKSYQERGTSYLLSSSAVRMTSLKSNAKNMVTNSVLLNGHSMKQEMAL
In the next test the target is T8, rat BRS-3 (Rattus norvegicus, UniProt Q8K418).
T8 sequence (Q8K418 1-399): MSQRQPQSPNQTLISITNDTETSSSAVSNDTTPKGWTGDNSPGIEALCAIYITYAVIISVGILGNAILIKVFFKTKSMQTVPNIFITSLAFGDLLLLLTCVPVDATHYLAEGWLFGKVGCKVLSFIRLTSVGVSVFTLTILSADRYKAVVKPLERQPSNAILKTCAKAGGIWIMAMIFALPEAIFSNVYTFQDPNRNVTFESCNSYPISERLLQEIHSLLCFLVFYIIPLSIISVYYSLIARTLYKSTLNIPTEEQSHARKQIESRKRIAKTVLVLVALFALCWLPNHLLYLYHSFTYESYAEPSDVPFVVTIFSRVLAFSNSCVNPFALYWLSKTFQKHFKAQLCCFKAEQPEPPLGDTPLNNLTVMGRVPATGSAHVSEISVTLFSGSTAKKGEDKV
Nature of the test: [3H]Inositol phosphate generation, rBRS-3/BALB cells. In kind it is cell-based.

Test [12] deals with T9, mouse NMBR (Mus musculus, UniProt O54799).
T9 sequence (O54799 1-390): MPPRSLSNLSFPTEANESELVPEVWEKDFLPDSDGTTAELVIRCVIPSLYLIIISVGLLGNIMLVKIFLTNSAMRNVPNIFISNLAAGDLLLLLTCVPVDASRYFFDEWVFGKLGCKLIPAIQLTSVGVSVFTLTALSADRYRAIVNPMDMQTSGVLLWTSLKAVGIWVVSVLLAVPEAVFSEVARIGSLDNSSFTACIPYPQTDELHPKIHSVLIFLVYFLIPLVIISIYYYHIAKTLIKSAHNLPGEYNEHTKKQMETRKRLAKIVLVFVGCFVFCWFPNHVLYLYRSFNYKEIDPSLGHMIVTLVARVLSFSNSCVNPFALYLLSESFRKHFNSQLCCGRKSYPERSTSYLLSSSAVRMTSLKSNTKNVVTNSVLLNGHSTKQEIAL
Nature of the test: Binding studies, mNMBR/BALB cells.

In test [13] the target is T7, human NMBR. Put plainly: [3H]Inositol phosphate generation, hNMBR/BALB cells. To be noted: EC50 Human NMBR hNMBR/BALB, [3H]IP production, 60 min, 37°C. It is filed as cell-based.
Test [14] addresses T9, mouse NMBR. Put plainly: [3H]Inositol phosphate generation, mNMBR/BALB cells. In kind it is cell-based. Particulars: EC50 Mouse NMBR mNMBR/BALB, [3H]IP production, 60 min, 37°C.

“And” between values parts separate entries of the source, which are not always exact repeats. Identical values can stand only once. Where only a bound is given, the exact number is not on record here.

T3 sequence (P52500 whole entry): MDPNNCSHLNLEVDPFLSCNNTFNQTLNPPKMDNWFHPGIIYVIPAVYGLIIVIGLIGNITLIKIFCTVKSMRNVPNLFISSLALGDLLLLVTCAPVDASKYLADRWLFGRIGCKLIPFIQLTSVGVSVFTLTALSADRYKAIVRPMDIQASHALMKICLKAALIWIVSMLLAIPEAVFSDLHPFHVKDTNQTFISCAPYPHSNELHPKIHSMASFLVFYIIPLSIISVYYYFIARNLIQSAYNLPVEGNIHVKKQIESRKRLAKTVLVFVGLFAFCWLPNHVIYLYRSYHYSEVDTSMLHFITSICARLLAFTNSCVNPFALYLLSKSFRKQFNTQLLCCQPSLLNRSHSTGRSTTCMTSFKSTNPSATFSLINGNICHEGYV
T5 sequence (P30550 whole entry): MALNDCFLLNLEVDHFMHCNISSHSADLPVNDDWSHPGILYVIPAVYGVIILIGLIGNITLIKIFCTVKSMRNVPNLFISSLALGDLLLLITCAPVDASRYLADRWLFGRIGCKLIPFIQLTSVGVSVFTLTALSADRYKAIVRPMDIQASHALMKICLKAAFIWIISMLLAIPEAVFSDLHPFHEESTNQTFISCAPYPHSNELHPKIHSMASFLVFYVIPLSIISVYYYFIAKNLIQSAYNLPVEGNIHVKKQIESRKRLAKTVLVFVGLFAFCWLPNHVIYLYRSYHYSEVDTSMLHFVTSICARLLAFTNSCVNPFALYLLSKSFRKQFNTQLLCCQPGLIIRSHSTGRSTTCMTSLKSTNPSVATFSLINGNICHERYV

For orientation: EC50 means the concentration needed to bring the measured effect to its halfway point. Higher therefore signals a need for much substance. One may read the IC50 as the concentration that gives 50% inhibition. Low readings indicate greater potency in that assay, high ones weaker potency in that assay. As for `CSCC[C@H](NC(=O)[C@H](Cc1ccccc1)NC(=O)[C@H](Cc1c[nH]cn1)NC(=O)CNC(=O)[C@@H](NC(=O)[C@H](C)NC(=O)[C@H](Cc1c[nH]c2ccccc12)NC(=O)[C@H](CC(C)C)NC(=O)[C@H](CC(N)=O)NC(=O)CN)[C@@H](C)O)C(N)=O` [NMB, neuromedin B], the concentration for a half-maximal effect (EC50) on human BRS-3 [1] was more than 3000 nM; on rat GRPR [4], 17 nM; at human GRPR [6], 530 ± 23 nM; on rat NMBR [7], 1.6 nM and 1.59 nM; at mouse BRS-3 it was more than 3000 nM; on mouse GRPR [10], 23 ± 8 nM. In addition, the EC50 at rat BRS-3 is more than 3000 nM; at human NMBR [13], 2.5 nM and 2.52 nM; on mouse NMBR [14] it was 4.7 nM and 4.73 nM. Further, the IC50 on human BRS-3 [2] was more than 3000 nM; on mouse GRPR [3] it was 170 ± 5 nM; at rat NMBR [5] it was 1.21 ± 0.15 nM; on human GRPR [8], 31.5 ± 2.4 nM; at rat GRPR [9], 80 ± 5 nM; at human NMBR [11] it was 0.6 ± 0.02 nM. Moreover, the IC50 on mouse NMBR [12] worked out at 0.6 ± 0.02 nM. Besides, at rat GRPR [9] (rat receptors), the “lower affinity for rGRPR than for rNMBR” value turned out to be 66 fold.
